Assay: xn = mol fraction of the nth substance listed
Details: Liquid; for viscosity: Concentric cylinders viscometry; for mass density: Vibrating tube method

Cc1ccc(C)c(C)c1 [1,2,4-trimethylbenzene] + CCCCO
Details	mass density, 100 kPa [kg/m3]	mass density, 1000 kPa [kg/m3]	mass density, 5000 kPa [kg/m3]	mass density, 10000 kPa [kg/m3]	mass density, 20000 kPa [kg/m3]	mass density, 30000 kPa [kg/m3]	mass density, 40000 kPa [kg/m3]	viscosity, 100 kPa [mPa·s]
323.15 K, x2 = 0.7975	–	–	–	–	–	–	–	1.027
323.15 K, x2 = 0.9131	–	–	–	–	–	–	–	1.22
333.15 K, x2 = 0	843.6	844.4	847.6	851.4	858.6	865.3	871.6	0.562
333.15 K, x2 = 0.1002	–	–	–	–	–	–	–	0.552
333.15 K, x2 = 0.1005	836.9	837.7	841	844.9	852.4	859.2	865.5	–
333.15 K, x2 = 0.2261	830.2	831	834.4	838.3	845.8	852.8	859.2	–
333.15 K, x2 = 0.2327	–	–	–	–	–	–	–	0.564
333.15 K, x2 = 0.2999	826.1	826.9	830.3	834.2	841.8	848.7	855.2	–
333.15 K, x2 = 0.3	–	–	–	–	–	–	–	0.582
333.15 K, x2 = 0.3966	820.6	821.4	824.8	828.8	836.4	843.4	849.8	–
333.15 K, x2 = 0.3969	–	–	–	–	–	–	–	0.6
333.15 K, x2 = 0.5289	812.8	813.6	817.1	821.1	828.7	835.7	842.2	–
333.15 K, x2 = 0.53	–	–	–	–	–	–	–	0.652
333.15 K, x2 = 0.6367	805.8	806.6	810.1	814.2	821.9	828.9	835.5	–
333.15 K, x2 = 0.637	–	–	–	–	–	–	–	0.711
333.15 K, x2 = 0.7249	799.8	800.7	804.2	808.3	816	823.1	829.6	–
333.15 K, x2 = 0.7975	–	–	–	–	–	–	–	0.853
333.15 K, x2 = 0.7977	794.5	795.3	798.8	803	810.7	817.8	824.4	–
333.15 K, x2 = 0.9131	785.6	786.4	789.9	794.1	801.9	809.1	–	0.996

— the NIST ThermoML archive (doi:10.1016/j.jct.2017.03.006)
